Experimental data: patent US10538567B2, “Compounds as peptidic trigonal GLP1/glucagon/GIP receptor agonists” (priority 2016, dated 2020)
In brackets after ≈: the same amount, converted by molar mass. Numbered stars: 1 amine (or outer) side, 2 acyl side, 3 side chain; on linkers, the order of the positions; unused ones are H or OH. Square brackets hold non-standard residues; d marks the D form. Side chains are listed from the residue outwards. Peptide text beside a SMILES is read from it. * marks the point of attachment. γGlu = O=C(O)[C@H](CCC(=O)[*:2])N[*:1]; Palmitoyl = CCCCCCCCCCCCCCCC(=O)*; Aib = CC(C)(N)C(=O)O

Experiments:
human glucagon receptor = molecular target: T1, human glucagon receptor (Homo sapiens, UniProt P47871); assay: cAMP response (HTRF) of HEK-293 cells stably expressing human glucagon receptor; assay type: cell-based; conditions: Table 8; read-out: EC50 hGlucagon R
T1 construct: expressed in transfected cells; host or cells: HEK-293
T1 sequence (P47871 26-477): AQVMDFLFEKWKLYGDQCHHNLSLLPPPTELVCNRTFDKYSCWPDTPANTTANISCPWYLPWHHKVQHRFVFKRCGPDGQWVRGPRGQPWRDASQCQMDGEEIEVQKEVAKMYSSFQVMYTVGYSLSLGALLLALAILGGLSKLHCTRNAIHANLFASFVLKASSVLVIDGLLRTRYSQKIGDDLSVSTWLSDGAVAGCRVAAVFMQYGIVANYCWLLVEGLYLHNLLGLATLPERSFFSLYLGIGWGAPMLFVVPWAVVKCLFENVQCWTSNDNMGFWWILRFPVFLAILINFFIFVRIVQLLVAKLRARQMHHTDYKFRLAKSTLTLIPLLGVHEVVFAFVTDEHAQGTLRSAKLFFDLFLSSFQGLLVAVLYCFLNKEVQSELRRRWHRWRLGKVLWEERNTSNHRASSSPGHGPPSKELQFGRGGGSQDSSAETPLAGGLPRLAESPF
Experimental: cAMP content of cells was determined using a kit from Cisbio Corp. (cat. no. 62AM4PEJ) based on HTRF (Homogenous Time Resolved Fluorescence). For preparation, cells were split into T175 culture flasks and grown overnight to near confluency in medium (DMEM/10% FBS). Medium was then removed and cells washed with PBS lacking calcium and magnesium, followed by proteinase treatment with accutase (Sigma-Aldrich cat. no. A6964). Detached cells were washed and resuspended in assay buffer (1×HBSS; 20 mM HEPES, 0.1% BSA, 2 mM IBMX) and cellular density determined. They were then diluted to 400000 cells/ml and 25 μl-aliquots dispensed into the wells of 96-well plates. For measurement, 25 μl of test compound in assay buffer was added to the wells, followed by incubation for 30 minutes at room temperature.
Potencies of peptidic compounds at the GLP-1, glucagon and GIP receptors were determined by exposing cells expressing human glucagon receptor (hGlucagon R), human GIP receptor (hGIP-R) or human GLP-1 receptor (hGLP-1 R) to the listed compounds at increasing concentrations and measuring the formed cAMP as described in Methods.

[1] = Solubility assessment in solubility buffer system A; assay type: physicochemical; conditions: acetate buffer pH 4.5 with m-cresol; acetate buffer pH 4.5, 2.7 mg/ml m-cresol, target 10 mg/ml
Experimental: Prior to the solubility measurement of a peptide batch, its purity was determined through UPLC/MS.
Therefore solutions from solid samples were prepared in a buffer system with a concentration of 10 mg/mL compound based on the previously determined % purity:
Solubility buffer system A) Acetate Buffer pH 4.5, 100 mM sodium acetate trihydrate, 2.7 mg/ml m-Cresol
UPLC-UV was performed after 1 hour of gentle agitation from the supernatant, which was obtained after 15 min of centrifugation at 2500 RCF (relative centrifugal acceleration).
The solubility was determined by the comparison of the UV peak area of 2 μL-injection of a buffered sample diluted 1:10 with a standard curve of a reference peptide with known concentration. The different UV extinction coefficients of sample and reference peptide were calculated based on the different amino acid sequences and considered in the concentration calculation.
Peptide samples were prepared in solubility buffer system A and solubility was assessed as described in Methods.

[2] = Dynamic light scattering, hydrodynamic radius as surrogate for DLS interaction parameter kD; assay type: physicochemical; conditions: for Delta Rh [nm] = Rh5 − Rh1: DLS buffer system A pH 4.5; for Rh1 [nm] c = 1 mg/ml / Rh5 [nm] c = 5 mg/ml: hydrodynamic radius, DLS buffer system A pH 4.5, method C, 25° C.
From the text: A monochromatic and coherent light beam (laser) is used to illuminate the liquid sample. Dynamic Light Scattering (DLS) measures light scattered from particles (1 nm≤radius≤1 μm) that undergo Brownian motion. This motion is induced by collisions between the particles and solvent molecules that themselves are moving due to their thermal energy. The diffusional motion of the particles results in temporal fluctuations of the scattered light [Pecora, R. Dynamic Light Scattering: Applications of Photon Correlation Spectroscopy, Plenum Press, 1985].
The scattered light intensity fluctuations are recorded and transformed into an autocorrelation function. By fitting the autocorrelation curve to an exponential function, the diffusion coefficient D of the particles in solution can be derived. The diffusion coefficient is then used to calculate the hydrodynamic radius Rh (or apparent Stokes radius) through the Stokes-Einstein equation assuming spherical particles. This calculation is defined in ISO 13321 and ISO 22412 [International Standard ISO13321 Methods for Determination of Particle Size Distribution Part 8: Photon Correlation Spectroscopy, International Organisation for Standardisation (ISO) 1996; International Standard ISO22412 Particle Size Analysis—Dynamic Light Scattering, International Organisation for Standardisation (ISO) 2008].
For every peptide solution, the hydrodynamic radius Rh and the diffusion constant D (related via the Stokes-Einstein equation) were determined as an average over triplicates. Both parameters were determined at different peptide concentrations (e.g., Rh1 and D1: 1 mg/ml and Rh5 and D5: 5 mg/ml) in the same buffer system. The difference of these parameters between low and high peptide concentration is a surrogate for the DLS interaction parameter kD. Rh5<Rh1 or D5>D1 correspond to kD>0 and therefore to repulsive inter-particle interactions that result in improved physical (or colloidal) stability.
DLS buffer system A) 25 mM acetate buffer pH 4.5, 3 mg/mL L-Methionine, 2.7 mg/mL m-cresol, 18 mg/mL Glycerol 85%
DLS Method C: DLS measurements were performed on a DynaPro Plate Reader II (Wyatt Technology, Santa Barbara, Calif., US) and using one of the following black, low volume, and non-treated plates: polystyrene 384 assay plate with clear bottom (Corning, N.Y., US), polystyrene 96 assay plate with clear bottom (Corning, N.Y., US), cyclo olefin polymer (COP) 384 assay plate with clear bottom (Aurora, Mont., US), or polystyrene 384 assay plate with clear bottom (Greiner Bio-One, Germany). The data were processed with the Dynamics software provided by Wyatt Technology. Parameters of the particle size distribution were determined with non-negatively constrained least squares (NNLS) methods using DynaLS algorithms. Measurements were taken at 25° C. with an 830 nm laser light source at an angle of 158°.
The hydrodynamic radius Rh of peptide samples was determined at different peptide concentrations (1 mg/ml and 5 mg/ml) in DLS buffer system A using DLS method C as described in Methods as surrogate for the DLS interaction parameter kD.

Row | SMILES | EC50 (human glucagon receptor) | solubility at 1 h [1] | Delta Rh [nm] = Rh5 − Rh1 [2] | Rh1 [nm] c = 1 mg/ml [2] | Rh5 [nm] c = 5 mg/ml [2]
1 | CCCCCCCCCCCCCCCC(=O)N[C@@H](CCC(=O)N[C@@H](CCC(=O)NCCCC[C@H](NC(=O)[C@H](CC(C)C)NC(=O)[C@H](CCCCN)NC(=O)[C@H](CO)NC(=O)[C@H](CC(C)C)NC(=O)[C@H](CC(=O)O)NC(=O)[C@H](CO)NC(=O)[C@@H](NC(=O)[C@H](Cc1ccccc1)NC(=O)[C@@H](NC(=O)CNC(=O)[C@H](Cc1c[nH]cn1)NC(=O)C(C)(C)NC(=O)[C@@H](N)Cc1c[nH]cn1)[C@@H](C)O)[C@@H](C)O)C(=O)N[C@@H](CCC(=O)O)C(=O)N[C@@H](CCC(=O)O)C(=O)N[C@@H](CCC(N)=O)C(=O)N[C@@H](CCCNC(=N)N)C(=O)N[C@@H](CCC(N)=O)C(=O)N[C@@H](CCCCN)C(=O)N[C@@H](CCC(=O)O)C(=O)N[C@@H](Cc1ccccc1)C(=O)N[C@H](C(=O)N[C@@H](CCC(=O)O)C(=O)N[C@@H](Cc1c[nH]c2ccccc12)C(=O)N[C@@H](CC(C)C)C(=O)N[C@@H](CCCCN)C(=O)N[C@@H](C)C(=O)NCC(=O)NCC(=O)N1CCC[C@H]1C(=O)N1CCC[C@H]1C(=O)N[C@@H](CO)C(=O)NC(C)(C)C(=O)N[C@@H](CCCCN)C(=O)N1CCC[C@H]1C(=O)N1CCC[C@H]1C(=O)N1CCC[C@H]1C(=O)N[C@@H](CCCCN)C(N)=O)[C@@H](C)CC)C(=O)O)C(=O)O [SEQ ID NO: 8, H-Aib-H-G-T-F-T-S-D-L-S-K-L-K[gGlu-gGlu-Palm]-E-E-Q-R-Q-K-E-F-I-E-W-L-K-A-G-G-P-P-S-Aib-K-P-P-P-K-NH2] | 2 pM | 9500 µg/mL (≈ 1940 µM) | −0.4 nm | 3.0 nm | 2.6 nm
2 | CCCCCCCCCCCCCCCC(=O)N[C@@H](CCC(=O)N[C@@H](CCC(=O)NCCCC[C@H](NC(=O)[C@H](CC(C)C)NC(=O)[C@H](CCCCN)NC(=O)[C@H](CO)NC(=O)[C@H](CC(C)C)NC(=O)[C@H](CC(=O)O)NC(=O)[C@H](CO)NC(=O)[C@@H](NC(=O)[C@H](Cc1ccccc1)NC(=O)[C@@H](NC(=O)CNC(=O)[C@H](Cc1c[nH]cn1)NC(=O)C(C)(C)NC(=O)[C@@H](N)Cc1c[nH]cn1)[C@@H](C)O)[C@@H](C)O)C(=O)N[C@@H](CCC(=O)O)C(=O)N[C@@H](CCC(=O)O)C(=O)N[C@@H](CCC(N)=O)C(=O)N[C@@H](CCCNC(=N)N)C(=O)N[C@@H](CCC(N)=O)C(=O)NC(C)(C)C(=O)N[C@@H](CCC(=O)O)C(=O)N[C@@H](Cc1ccccc1)C(=O)N[C@H](C(=O)N[C@@H](CCC(=O)O)C(=O)N[C@@H](Cc1c[nH]c2ccccc12)C(=O)N[C@@H](CC(C)C)C(=O)N[C@@H](CCCCN)C(=O)N[C@@H](C)C(=O)N[C@H](C)C(=O)NCC(=O)N1CCC[C@H]1C(=O)N1CCC[C@H]1C(=O)N[C@@H](CO)C(=O)NC(C)(C)C(=O)N[C@@H](CCCCN)C(=O)N1CCC[C@H]1C(=O)N1CCC[C@H]1C(=O)N1CCC[C@H]1C(=O)N[C@@H](CCCCN)C(N)=O)[C@@H](C)CC)C(=O)O)C(=O)O [SEQ ID NO: 11, H-Aib-H-G-T-F-T-S-D-L-S-K-L-K[gGlu-gGlu-Palm]-E-E-Q-R-Q-Aib-E-F-I-E-W-L-K-A-dAla-G-P-P-S-Aib-K-P-P-P-K-NH2] (H-H[Aib]HGTFTSDLSKLK([γGlu-γGlu-Palmitoyl])EEQRQ[Aib]EFIEWLKA[dA]GPPS[Aib]KPPPK-NH2) | 2.1 pM | > 9800 µg/mL | – | – | –
3 | CCCCCCCCCCCCCCCC(=O)N[C@@H](CCC(=O)N[C@@H](CCC(=O)NCCCC[C@H](NC(=O)[C@H](CC(C)C)NC(=O)[C@H](CCCCN)NC(=O)[C@H](CO)NC(=O)[C@H](CC(C)C)NC(=O)[C@H](CC(=O)O)NC(=O)[C@H](CO)NC(=O)[C@@H](NC(=O)[C@H](Cc1ccccc1)NC(=O)[C@@H](NC(=O)CNC(=O)[C@H](Cc1c[nH]cn1)NC(=O)C(C)(C)NC(=O)[C@@H](N)Cc1c[nH]cn1)[C@@H](C)O)[C@@H](C)O)C(=O)N[C@@H](CCC(=O)O)C(=O)N[C@@H](CCC(=O)O)C(=O)N[C@@H](CCC(N)=O)C(=O)N[C@@H](CCCNC(=N)N)C(=O)N[C@@H](CCC(N)=O)C(=O)NC(C)(C)C(=O)N[C@@H](CCC(=O)O)C(=O)N[C@@H](Cc1ccccc1)C(=O)N[C@H](C(=O)N[C@@H](CCC(=O)O)C(=O)N[C@@H](Cc1c[nH]c2ccccc12)C(=O)N[C@@H](CC(C)C)C(=O)N[C@@H](CCCCN)C(=O)N[C@@H](C)C(=O)N[C@H](C)C(=O)NCC(=O)N[C@@H](Cc1c[nH]cn1)C(=O)N1CCC[C@H]1C(=O)N[C@@H](CO)C(=O)NC(C)(C)C(=O)N[C@@H](CCCCN)C(=O)N1CCC[C@H]1C(=O)N1CCC[C@H]1C(=O)N1CCC[C@H]1C(=O)N[C@@H](CCCCN)C(N)=O)[C@@H](C)CC)C(=O)O)C(=O)O [SEQ ID NO: 13, H-Aib-H-G-T-F-T-S-D-L-S-K-L-K[gGlu-gGlu-Palm]-E-E-Q-R-Q-Aib-E-F-I-E-W-L-K-A-dAla-G-H-P-S-Aib-K-P-P-P-K-NH2] (H-H[Aib]HGTFTSDLSKLK([γGlu-γGlu-Palmitoyl])EEQRQ[Aib]EFIEWLKA[dA]GHPS[Aib]KPPPK-NH2) | 2.1 pM | – | −0.3 nm | 2.8 nm | 2.5 nm
